{
  "source": "patent US20190022225A1",
  "about": "“PROTOCOL FOR INCREASING LIFE EXPECTANCY IN A TEST SUBJECT” (Mayo Foundation for Medical Education and Research, priority 2015, published 2019)",
  "key": {"LDLR−/− mice fed a HFD": {"system": "LDLR−/− mice fed a HFD", "assay": "Atherosclerosis model, LDLR-/- mice on high fat diet treated with Nutlin-3A", "format": "in vivo, mouse", "description": "Schematics of two atherosclerosis mouse models are presented in FIGS. 43A-B. The study illustrated in FIG. 43A assessed the extent to which clearance of senescent cells from plaques in LDLR^−/− mice with Nutlin-3A reduces plaque load. Two groups of LDLR^−/− mice (10 weeks) are fed a high fat diet (HFD) (Harlan Teklad TD.88137) having 42% calories from fat, beginning at Week 0 and throughout the study. Two groups of LDLR^−/− mice (10 weeks) are fed normal chow (−HFD). From weeks 0-2, one group of HFD mice and −HFD mice are treated with Nutlin-3A (25 mg/kg, intraperitoneally). One treatment cycle is 14 days treatment, 14 days off. Vehicle is administered to one group of HFD mice and one group of −HFD mice. At week 4 (timepoint 1), one group of mice are sacrificed and to assess presence of senescent cells in the plaques. For the some of the remaining mice, Nutlin-3A and vehicle administration is repeated from weeks 4-6. At week 8 (timepoint 2), the mice are sacrificed and to assess presence of senescent cells in the plaques. The remaining mice are treated with Nutlin-3A or vehicle from weeks 8-10. At week 12 (timepoint 3), the mice are sacrificed and to assess the level of plaque and the number of senescent cells in the plaques.\nPlasma lipid levels were measured in LDLR^−/− mice fed a HFD and treated with Nutlin-3A or vehicle at timepoint 1 as compared with mice fed a −HFD (n=3 per group). Plasma was collected mid-afternoon and analyzed for circulating lipids and lipoproteins.\nAt the end of timepoint 1, LDLR^−/− mice fed a HFD and treated with Nutlin-3A or vehicle were sacrificed (n=3, all groups), and the aortic arches were dissected for RT-PCR analysis of SASP factors and senescent cell markers. Values were normalized to GAPDH and expressed as fold-change versus age-matched, vehicle-treated LDLR^−/− mice on a normal diet.\nAt the end of timepoint 2, LDLR^−/− mice fed a HFD and treated with Nutlin-3A or vehicle (n=3 for all groups) were sacrificed, and aortic arches were dissected for RT-PCR analysis of SASP factors and senescent cell markers. Values were normalized to GAPDH and expressed as fold-change versus age-matched, vehicle-treated LDLR^−/− mice on a normal diet.\nAt the end of timepoint 3, LDLR^−/− mice fed a HFD and treated with Nutlin-3A or vehicle (n=3 for all groups) were sacrificed, and aortas were dissected and stained with Sudan IV to detect the presence of lipid. Body composition of the mice was analyzed by MRI, and circulating blood cells were counted by Hemavet. […] As shown in FIGS. 48A-B, the platelet and lymphocyte counts were equivalent between the Nutlin-3A and vehicle treated mice."}, "[1]": {"system": "senescent foreskin fibroblasts (HCA2 and BJ), lung fibroblasts (IMR90)", "assay": "Cell count survival assay of Nutlin-3a on irradiation-induced senescent fibroblasts", "format": "cell-based, human", "conditions": "10 Gy irradiated HCA2, BJ, Nutlin-3a 0, 2.5, 10 μM for 9 days", "experimental": "Foreskin fibroblast cell lines HCA2 and BJ, lung fibroblast cell line IMR90, and mouse embryonic fibroblasts were seeded in six-well plates and induced to senesce with 10 Gy of ionizing radiation (IR) or a 24 hr treatment with doxorubicin (Doxo). Senescent phenotype was allowed to develop for at least 7 days, at which point a cell count was made to determine the baseline number of cells. Nutlin-3a treatment was then initiated for a period of at least 9 days. Media alone or media with drug as appropriate was refreshed at least every three days. At the end of the assay time period, cells are counted. Each condition was seeded in three plate wells and counted independently. Initial cell count serves as a control to determine the induction of senescence, as compared to the last day count without nutlin treatment. Initial non-senescent cell count serves as a proxy to determine Nutlin-3a toxicity.\nForeskin fibroblast cell lines HCA2 and BJ, lung fibroblast cell line IMR90, and mouse embryonic fibroblasts were exposed to 10 Gy of ionizing radiation (IR) to induce senescence. […] Percent survival was calculated as [cell count on day 9 of Nutlin-3a treatment/initial cell count on first day of Nutlin-3a treatment]."}},
  "data": [
    {"smiles": "COc1ccc(C2=N[C@@H](c3ccc(Cl)cc3)[C@@H](c3ccc(Cl)cc3)N2C(=O)N2CCNC(=O)C2)c(OC(C)C)c1", "note": "[Nutlin-3a]", "values": [
      {"measurement": "expression of SASP factors and senescent cell markers in aortic arch", "setting": "LDLR−/− mice fed a HFD; after 1 treatment cycle (25 mg/kg ip, 14 days on, 14 days off)", "value": "reduced expression of several SASP factors and senescent cell markers"},
      {"measurement": "expression of SASP factors and senescent cell markers in aortic arch", "setting": "LDLR−/− mice fed a HFD; multiple treatment cycles (timepoint 2)", "value": "reduced expression of most markers"},
      {"measurement": "platelet and lymphocyte counts versus vehicle", "setting": "LDLR−/− mice fed a HFD; timepoint 3", "value": "equivalent"},
      {"measurement": "mass and body fat composition", "setting": "LDLR−/− mice fed a HFD; timepoint 3, HFD", "value": "decreased mass and body fat composition"},
      {"measurement": "reduction of plaques in the descending aorta", "setting": "LDLR−/− mice fed a HFD; timepoint 3, three treatment cycles, Sudan IV staining", "value": "~45", "unit": "%"},
      {"measurement": "cell survival of senescent fibroblasts (percent survival)", "setting": "[1]", "value": "reduced cell survival"}
    ]}
  ]
}
